For twelve compounds, EC50 and CC50 results are on record in patent publication US8338435B2, “Substituted pyrido(3,2-D) pyrimidines and pharmaceutical compositions for treating viral infections” (Gilead Sciences, Inc., priority 2006, dated 2012).

For one data set, the system named is HCV replicon. Kind of data set: Anti-HCV replicon assay, EC50 (luciferase luminescence). Particulars: Hepatitis C virus. The format is cell-based. The procedure:
(§1) The anti-HCV activity of certain pyrido[3,2-d]pyrimidine derivatives of this invention was tested in a human hepatoma Huh-7 cell line harbouring a HCV replicon. The assay comprised the following steps:
(§2) Step 1: Compound Preparation and Serial Dilution
(§3) • 1. for water soluble pyrido[3,2-d]pyrimidine derivatives, a volume of 500 μL of solution in cell media (DMEM, 10% FBS, P/S, L-Glutamine) was prepared with a concentration being twice the concentration of the starting final serial dilution concentration. A volume of 150 μL of the solution was added to the pre-specified wells in column 1 of a 96-well cell culture plate (PerkinElmer, white plate, cat. #6005181, for EC50 assay; black plate, cat. #6005182 for CC50 assay). The rest of the plate, columns 2-12, was filled with 100 μL of cell media. The plate was then placed on a Precision 2000 Workstation to start the serial dilution. Compounds were diluted three times each step from column 1 to column 10. Column 11 was used as a blank control (no compound added). • 2. for pyrido[3,2-d]pyrimidine derivatives requiring DMSO to dissolve, serial dilution is performed in 50% DMSO in a 384-well plate. A solution containing a compound at 100-fold concentration of the starting final serial dilution concentration was prepared in 50% DMSO and added to the pre-specified wells in column 1 of a polypropylene 384-well plate. The plate was then placed on a Precision 2000 Workstation to start the serial dilution. After the serial dilution, a volume of 2 μL of the solution was transferred from the 384-well plate to a 96-well cell culture plate containing 100 μL of cell media on a Biomek FX Workstation. The DMSO concentration in the final assay condition was 0.5% after cells are added to the plate and the total volume in each well is brought to 200 μL. Step 2: to each well of the serial dilution plate prepared above, 100 μL of cell media containing 6000 suspended Huh-7 HCV replicon cells was added with a Multidrop workstation. The plates were incubated for 3 days at 37° C. with 5% CO2. Step 3: Detection: • a) for the EC50 assay, the media in a 96-well cell culture plate was aspirated with a Biotek EL405 plate-washer. A volume of 200 μL of a solution containing a 1:1 mixture of cell-lysis buffer (Promega, Luciferase Cell Culture Lysis 5× Reagent, cat. #E1531) and luciferase substrate solution (Promega, Luciferase Assay, cat. # E4550) was added to each well of the plate with Multidrop. The plate was incubated for 30 minutes at room temperature before the luminescence signal was measured with a TopCount plate-reader. • b) for the CC50 assay, a volume of 100 μL of pre-mixed CellTiter-Glo (Promega, cat. # G7572) solution is added directly to the cell culture in each well of the plate and the luminescence signal is measured with a TopCount plate-reader after 10 minutes of incubation at room temperature.
(§4) Results in the table below are expressed by the following data: • the 50% cytostatic concentration (CC50). i.e. the concentration that results in 50% inhibition of cell growth, and • the 50% effective concentration (EC50), i.e. the concentration that protects 50% of the cell monolayer from virus-induced cythopathic effect.
(In general: In antiviral work, replicon cells carry a viral genome segment that copies itself.)

Data set [1] in a line: CC50 assay (CellTiter-Glo) in the replicon cells. The data set is classed as cell-based. Particulars: human, Huh-7 HCV replicon cells, 3 days incubation, 50% inhibition of cell growth. How it is done: as §1, §2, §3, §4
Setting [2] is: 72 h, human hepatoma Huh-7 cell line harbouring a HCV replicon, 3 days incubation, luciferase readout, read-out: EC50.

Where two headings read alike, the source gives them in different places. Bounds are passed on as bounds.

By EC50 is commonly meant the concentration that produces a half-maximal response. For orientation: CC50 means the concentration giving 50% cytotoxicity. Read a low CC50 as greater toxicity to the cells.

On to `CCCc1nc(N)nc2ccc(-c3ccc(F)cc3)nc12` [Example 2, 6-(4-fluorophenyl)-4-n-propyl-pyrido[3,2-d]pyrimidin-2-yl-amine], for which the EC50 with HCV replicon (setting [2]) is under 300 nM. This compound also gave a CC50 at 3 days in data set [1] of over 20000 nM.
The like results for `CCCc1nc(N)nc2ccc(-c3ccc(NC(C)=O)cc3)nc12` [Example 3, N-[4-(2-amino-4-n-propyl-pyrido[3,2-d]pyrimidin-6-yl)-phenyl]-acetamide] were, in that order, 300 to 1000 nM and over 20000 nM.
In the same order, the values of `CCc1nc(N)nc2ccc(-c3ccc(F)cc3)nc12` [Example 5, 4-ethyl-6-(4-fluoro-phenyl)-pyrido[3,2-d]pyrimidin-2-ylamine] are under 300 nM and under 10000 nM.
In the same order, the values of `CC(C)Cc1nc(N)nc2ccc(-c3ccc(F)cc3)nc12` [Example 6, 6-(4-fluorophenyl)-4-isobutyl-pyrido[3,2-d]pyrimidin-2-ylamine] are under 300 nM and over 20000 nM.
`C=CCCc1nc(N)nc2ccc(-c3ccc(F)cc3)nc12` [Example 7, 4-but-3-enyl-6-(4-fluorophenyl)-pyrido[3,2-d]pyrimidin-2-ylamine] registered an EC50 in the data set with HCV replicon (Huh-7, 72 h) of under 300 nM. Further, the CC50 at 3 days in data set [1] is over 20000 nM.
For the compound `CCc1nc(N)nc2ccc(-c3ccc(N4CCCC4=O)cc3)nc12` [Example 8, 1-[4-(2-amino-4-ethyl-pyrido[3,2-d]pyrimidin-6-yl)-phenyl]-pyrrolidin-2-one], the EC50 in the data set with HCV replicon (setting [2]) was under 300 nM. In data set [1], this compound returned a CC50 at 3 days of over 20000 nM.
As for `CCc1nc(N)nc2ccc(-c3cnc(N)cn3)nc12` [Example 9, 6-(5-Amino-pyrazin-2-yl)-4-ethyl-pyrido[3,2-d]pyrimidin-2-ylamine], in the data set on HCV replicon (setting [2]), the EC50 lay within 300 to 1000 nM. Further, the CC50 at 3 days in data set [1] was under 10000 nM.
In the case of `Nc1nc(CCC2OCCCO2)c2nc(-c3ccc(F)cc3)ccc2n1` [Example 10, 4-(2-[1,3]dioxan-2-yl-ethyl)-6-(4-fluoro-phenyl)-pyrido[3,2-d]pyrimidin-2-ylamine], the EC50 with HCV replicon (Huh-7, 72 h) is 300 to 1000 nM. The same compound displayed a CC50 at 3 days in data set [1] of over 20000 nM.
In the case of `Cc1nc(N)nc2ccc(-c3ccc(F)cc3)nc12` [Example 11, 4-methyl-6-(4-fluorophenyl)-pyrido[3,2-d]pyrimidin-2-ylamine], the EC50 in the data set with HCV replicon (setting [2]) was under 300 nM. The compound further yielded a cytotoxic concentration (CC50) at 3 days in data set [1] of under 10000 nM.
In the same order, the values of `CC(C)c1nc(N)nc2ccc(-c3ccc(F)cc3)nc12` [Example 12, 6-(4-fluorophenyl)-4-isopropyl-pyrido[3,2-d]pyrimidin-2-ylamine] are under 300 nM and over 20000 nM.
Take `Nc1nc(C2CC2)c2nc(-c3ccc(F)cc3)ccc2n1` [Example 13, 4-Cyclopropyl-6-(4-fluoro-phenyl)-pyrido[3,2-d]pyrimidin-2-ylamine]: the EC50 in the data set with HCV replicon (setting [2]) is under 300 nM. Further, the CC50 at 3 days in data set [1] was 10000 to 20000 nM.
The like results for `Nc1nc(C2CC2)c2nc(-c3ccc(N4CCCC4=O)cc3)ccc2n1` [Example 14, 1-[4-(2-amino-4-cyclopropyl-pyrido[3,2-d]pyrimidin-6-yl)-phenyl]-pyrrolidin-2-one] were, in that order, under 300 nM and 10000 to 20000 nM.
